“And” between values parts separate entries of the source, which are not always exact repeats. Equal entries are not always repeated. Inconclusive results and toxic doses are left out. Rule as the data show it: active = T/C of 150% or more; inactive = T/C below 125%.
Tested on: L1210 leukemia ip in BDF1 mice, survival T/C
Assay: NCI In Vivo Anticancer Drug Screen. Data for tumor model L1210 Leukemia (intraperitoneal) in B6D2F1 (BDF1) mice
Settings: endpoint: mean survival time, higher = longer survival
Outline: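 Each compound was tested against a transplantable tumor grown in mice. The endpoint was survival, with treated animals benchmarked against vehicle controls as a simple ratio.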

[1] = dose: 100.0 mg/kg/injection, schedule: Q01DX009 (ip), vehicle: saline with Tween-80
[2] = dose: 200.0 mg/kg/injection, schedule: Q01DX009 (ip), vehicle: saline with Tween-80
[3] = dose: 100.0 mg/kg/injection, schedule: Q01DX009 (ip), vehicle: saline
[4] = dose: 100.0 mg/kg/injection, schedule: Q04DX003 (ip), vehicle: saline with Tween-80
[5] = dose: 200.0 mg/kg/injection, schedule: Q01DX009 (ip), vehicle: saline
[6] = dose: 200.0 mg/kg/injection, schedule: Q04DX003 (ip), vehicle: saline with Tween-80
[7] = dose: 400.0 mg/kg/injection, schedule: Q04DX003 (ip), vehicle: saline with Tween-80
[8] = dose: 100.0 mg/kg/injection, schedule: Q01DX009 (ip), vehicle: Klucel (hydroxypropylcellulose) (HPC)
[9] = dose: 100.0 mg/kg/injection, schedule: Q04DX003 (ip), vehicle: Klucel (hydroxypropylcellulose) (HPC)
[10] = dose: 200.0 mg/kg/injection, schedule: Q01DX009 (ip), vehicle: Klucel (hydroxypropylcellulose) (HPC)
[11] = dose: 200.0 mg/kg/injection, schedule: Q04DX003 (ip), vehicle: Klucel (hydroxypropylcellulose) (HPC)
[12] = dose: 400.0 mg/kg/injection, schedule: Q01DX009 (ip), vehicle: Klucel (hydroxypropylcellulose) (HPC)
[13] = dose: 400.0 mg/kg/injection, schedule: Q04DX003 (ip), vehicle: Klucel (hydroxypropylcellulose) (HPC)
[14] = dose: 100.0 mg/kg/injection, schedule: Q01DX001 (ip), vehicle: Klucel (hydroxypropylcellulose) (HPC)
[15] = dose: 200.0 mg/kg/injection, schedule: Q01DX001 (ip), vehicle: Klucel (hydroxypropylcellulose) (HPC)
[16] = dose: 400.0 mg/kg/injection, schedule: Q01DX001 (ip), vehicle: Klucel (hydroxypropylcellulose) (HPC)
[17] = dose: 100.0 mg/kg/injection, schedule: Q04DX003 (ip), vehicle: saline
[18] = dose: 200.0 mg/kg/injection, schedule: Q04DX003 (ip), vehicle: saline

Measured: T/C

CN(C)C(=O)CCCCC(=O)N(C)C
inactive: dose: 100.0 mg/kg/injection, schedule: Q04DX002 (ip), vehicle: saline 94 % of control | dose: 200.0 mg/kg/injection, schedule: Q04DX002 (ip), vehicle: saline 86 % of control | dose: 400.0 mg/kg/injection, schedule: Q04DX002 (ip), vehicle: saline 105 % of control

CNc1nnnn1-c1ccccc1
inactive: dose: 100.0 mg/kg/injection, schedule: Q01DX001 (ip), vehicle: acetone 95 % of control | dose: 200.0 mg/kg/injection, schedule: Q01DX001 (ip), vehicle: acetone 100 % of control | dose: 400.0 mg/kg/injection, schedule: Q01DX001 (ip), vehicle: acetone 95 % of control

O=C(/C=C\c1ccc(C(=O)Nc2ccc(C3=NCCN3)cc2)cc1)Nc1ccc(C2=NCCN2)cc1
inactive: dose: 6.0 mg/kg/injection, schedule: Q01DX Z (ip), vehicle: water 110 % of control | dose: 11.0 mg/kg/injection, schedule: Q01DX Z (ip), vehicle: water 102 % of control | dose: 15.0 mg/kg/injection, schedule: Q01DX Z (ip), vehicle: saline 114 % of control | dose: 22.0 mg/kg/injection, schedule: Q01DX Z (ip), vehicle: water 104 % of control | dose: 30.0 mg/kg/injection, schedule: Q01DX Z (ip), vehicle: saline 120 % of control | dose: 45.0 mg/kg/injection, schedule: Q01DX Z (ip), vehicle: water 107 % of control | dose: 60.0 mg/kg/injection, schedule: Q01DX Z (ip), vehicle: saline 122 % of control | dose: 120.0 mg/kg/injection, schedule: Q01DX Z (ip), vehicle: saline 113 % of control | dose: 240.0 mg/kg/injection, schedule: Q01DX Z (ip), vehicle: saline 117 % of control | dose: 480.0 mg/kg/injection, schedule: Q01DX Z (ip), vehicle: saline 103 % of control

O=S1(=O)CCCC1=C(c1ccccc1)c1ccccc1
inactive: [1] 105 % of control | [2] 100 % of control | dose: 400.0 mg/kg/injection, schedule: Q01DX009 (ip), vehicle: saline with Tween-80 107 % of control

CC(=O)NNC(=O)c1ccccc1
inactive: [1] 101 % of control | [3] 106 % of control | [4] 106 % of control | [2] 109 % of control | [5] 113 % of control | [6] 108 % of control | [7] 101 % of control

COP(=O)(NC12CC3CC(CC(C3)C1)C2)OC
inactive: [8] 103 % of control | [9] 97 % of control | [10] 100 % of control | [11] 95 % of control | [12] 101 % of control | [13] 95 % of control

CCS(=O)c1ncc2cnccn12 (stereo unspecified)
inactive: dose: 50.0 mg/kg/injection, schedule: Q01DX009 (ip), vehicle: water 105 % of control | dose: 100.0 mg/kg/injection, schedule: Q01DX009 (ip), vehicle: water 107 % of control | dose: 100.0 mg/kg/injection, schedule: Q04DX003 (ip), vehicle: water 102 % of control | dose: 200.0 mg/kg/injection, schedule: Q04DX003 (ip), vehicle: water 100 % of control

CCOc1ccc(C2CCCCCC2OS(C)(=O)=O)cc1 (stereo unspecified)
inactive: [14] 105 % of control | [8] 95 % of control | [9] 97 % of control | [15] 96 % of control | [10] 98 % of control | [11] 103 % of control | [16] 100 % of control | [12] 93 % of control | [13] 101 % of control

CC1C2c3ccccc3C(c3ccccc32)C1S(=O)(=O)F (stereo unspecified)
inactive: [8] 97 % of control | [10] 100 % of control | [12] 106 % of control

CCc1nc(N[N+](=O)[O-])nc(N)c1-c1ccccc1O
inactive: dose: 50.0 mg/kg/injection, schedule: Q04DX002 (ip), vehicle: Klucel (hydroxypropylcellulose) (HPC) 97 % of control | dose: 100.0 mg/kg/injection, schedule: Q04DX002 (ip), vehicle: Klucel (hydroxypropylcellulose) (HPC) 93 % of control and 111 % of control | dose: 200.0 mg/kg/injection, schedule: Q04DX002 (ip), vehicle: Klucel (hydroxypropylcellulose) (HPC) 97 % of control | dose: 400.0 mg/kg/injection, schedule: Q04DX002 (ip), vehicle: Klucel (hydroxypropylcellulose) (HPC) 90 % of control

CCSCC1OC(n2ncc3c(N)ncnc32)C(O)C1O (stereo unspecified)
inactive: [14] 98 % of control | [15] 93 % of control | [16] 97 % of control

CN1CCC=C(C(=O)N(c2ccccc2)c2ccccc2)C1
inactive: dose: 50.0 mg/kg/injection, schedule: Q01DX009 (ip), vehicle: saline 106 % of control | [3] 101 % of control | [17] 93 % of control | [5] 97 % of control | [18] 98 % of control

CCCCS(=O)(=O)N1CCCCC1
inactive: [3] 107 % of control | [5] 95 % of control | dose: 400.0 mg/kg/injection, schedule: Q01DX009 (ip), vehicle: saline 106 % of control

O=C(CCN1C(=O)c2ccccc2C1=O)c1ccc(O)cc1
inactive: dose: 6.25 mg/kg/injection, schedule: Q01DX009 (ip), vehicle: saline with Tween-80 97 % of control | dose: 12.5 mg/kg/injection, schedule: Q01DX009 (ip), vehicle: saline with Tween-80 98 % of control | dose: 25.0 mg/kg/injection, schedule: Q01DX009 (ip), vehicle: saline with Tween-80 91 % of control

CC1(C)OCC(C2OC(c3ccccc3)OC(CO)C2O)O1 (stereo unspecified)
inactive: dose: 12.5 mg/kg/injection, schedule: Q04DX002 (ip), vehicle: saline with Tween-80 87 % of control | dose: 25.0 mg/kg/injection, schedule: Q04DX002 (ip), vehicle: saline with Tween-80 101 % of control | dose: 50.0 mg/kg/injection, schedule: Q04DX002 (ip), vehicle: saline with Tween-80 100 % of control

Cc1ncc(C#N)c(=O)[nH]1
inactive: dose: 25.0 mg/kg/injection, schedule: Q04DX003 (ip), vehicle: saline with Tween-80 92 % of control | dose: 50.0 mg/kg/injection, schedule: Q04DX003 (ip), vehicle: saline with Tween-80 90 % of control | [4] 90 % of control

Nc1nc(N)nc(NC(=O)CNCc2ccccc2)n1
inactive: [4] 101 % of control and 105 % of control | [6] 97 % of control and 107 % of control | [7] 97 % of control and 102 % of control

CCOC(=O)/C(O)=C(\C=N\C(N)=O)C(=O)OCC
inactive: dose: 100.0 mg/kg/injection, schedule: Q04DX003 (ip), vehicle: saline sonified 93 % of control | dose: 200.0 mg/kg/injection, schedule: Q04DX003 (ip), vehicle: saline sonified 103 % of control | dose: 400.0 mg/kg/injection, schedule: Q04DX003 (ip), vehicle: saline sonified 95 % of control

CC[N+](=Cc1ccccc1)C1CCCCC1
inactive: [3] 88 % of control | [17] 100 % of control | [5] 93 % of control | [18] 97 % of control | dose: 400.0 mg/kg/injection, schedule: Q04DX003 (ip), vehicle: saline 108 % of control

CC(=O)Oc1ccc([N+](=O)[O-])cc1C(OC(C)=O)OC(C)=O
inactive: dose: 55.0 mg/kg/injection, schedule: Q01DX Z (ip), vehicle: methylcellulose (MC) 90 % of control | dose: 83.0 mg/kg/injection, schedule: Q01DX Z (ip), vehicle: methylcellulose (MC) 96 % of control | dose: 125.0 mg/kg/injection, schedule: Q01DX Z (ip), vehicle: methylcellulose (MC) 93 % of control
